How the values were obtained:
[1] = DCIP redox potential of highly hopped beer during aging at 40° C.; assay type: physicochemical; design: DCIP Redox Value: scale not given here; details: for effect on DCIP redox potential: highly hopped beer aged at 40° C.
Method: Dr. […] H2SO4 brought to 100 mL in a volumetric flask. Four drops of starch indicator were added, and the DCIP was titrated with 0.01; sodium thiosulfate. The concentration of DCIP in mg/dL was measured by multiplying the mL of titer by 14.5. De-ionized water was added to adjust the final concentration to 1.45 mg/mL. 250 μL of adjusted DCIP was added to the 10 mL of degassed beer, the flask swirled to mix, and a 1 min timer started. The beer/DCIP was poured into a 1 cm cuvette and placed in the spectrophotometer. The absorbance was read at exactly 1 minute. These analyses were done in triplicate and averaged. […] The bottle dosing methods used were the same as those described in Example 1. The following samples were made: • 1. 20 ppm Carnosic Acid • 2. 20 ppm Carnosic Acid plus Air • 3. 20 ppm Rosmarinic Acid • 4. 20 ppm Rosmarinic Acid plus Air • 5. 10 ppm Carnosic Acid+10 ppm Rosmarinic Acid • 6. 10 ppm Carnosic Acid+10 ppm Rosmarinic Acid+Air • 7. […] No Additions. Treatments 1 through 8 were put in a temperature regulated room set at 40° C. and maintained at ±1° C. At intervals of Zero time, 3 days, 7 days, 14 days, and 21 days, samples were withdrawn and Redox Potentials were measured by the method outlined in example 4. Color measurements were made using the L, a, b system on a Minolta Spectrophotometer model […], chroma and hue angle color measure units were recorded. DPPH radical scavenging numbers were measured using the following method. A de-ionized-H2O/EtOH buffer solution was prepared by dissolving 250 mg sodium citrate dihydrate and 10 g of absolute ethanol in 250 mL of deionized water. The solution was then titrated with 0.1 N Citric acid (6.404 g/L anhydrous citric acid) a drop at a time to reach a pH of between 4.35 and 4.5.

[2] = Trained panel flavor evaluation, highly hopped aromatic beer, forced aging; details: 20 ppm
Method: Separate solutions containing 2% pure rosmarinic acid or pure carnosic acid were prepared by weighing out 500 mg of each compound into separate volumetric flasks and diluting to 25 mL with 100% EtOH. The beer used in this study was the freshest material available, being coded Nov 03 […]. It was purchased at a local market. Bottle additions were done as in Example 1. The following samples were prepared: The bottles were placed in a heated room at 40±1° C. in the dark for varying amounts of time. After the allotted aging time, the bottles of beer were transferred to a dark refrigerator and stored at approximately 2to 4° C. until they were analyzed (always within 48 hours). Additional bottles from the same code were kept unopened in 2° to 4° C. storage. These unopened samples from the same beer code were labeled “Fresh Control” used to provide fresh samples for the trained panel. At the appropriate times, a trained 8-member panel evaluated the beers. […] Three beers were evaluated at each session-Fresh Control, Aged No Addition, and Aged Beer with one of the Labiatae treatments. The overall preference rank, the character and intensity of the aroma, the levels of paper/cardboard aroma and flavor, sour or off flavors, hang and astringency and bitterness quality and intensity were evaluated.

[3] = Haze formation in aged beer (Haze Meter); assay type: physicochemical; details: for Haze: 20 ppm (RA + CA: 10 ppm each); for effect on rate of haze formation: aged beer exposed to air
Method: The highly hopped beer from example 2 was treated with solutions of carnosic acid in ethanol, rosmarinic acid in ethanol or a mixture of carnosic acid and rosmarinic acid in ethanol as done previously. The preparations were: • 1. “Fresh”, in which the beer remained unopened and was stored in the cold room at 2-4° C. • 2. “20 ppm CA” in which bottles were opened and 20 ppm carnosic acid was added from a 2% solution of pure CA ([…] of the 2% solution). The bottles were fobbed to exclude air and crowned. • 3. “20 ppm CA+air” in which bottles were opened and 20 ppm CA added as above. These bottles received two puffs of air in the remaining headspace from a 25 mL bulb. They were crowned without fobbing • 4. “20 ppm RA” in which bottles were opened and 20 ppm rosmarinic acid added from a 2% solution. The bottles were fobbed and crowned. • 5. “20 ppm RA+air” which was done as in No. 4, with 20 ppm RA added. These bottles received the two puffs of air and were crowned without fobbing. • 6. “10 ppm RA+10 ppm CA” in which bottles were opened and 10 ppm each of carnosic and rosmarinic acids were added from pure solutions (178 μL of 2% solution per 12 oz bottle). Bottles were fobbed and crowned. • 7. “10 ppm RA+10 ppm CA+air” in which 10 ppm each of RA and CA was added. This treatment received two puffs of air and was not fobbed before closing. • 8. “Control+air” in which bottles were opened, given two puffs of air and crowned without fobbing. • 9. “Control” in which bottles were opened, fobbed and crowned.
The samples prepared in Example 18 were analyzed for haze in the following manner. A clean, dry, clear flint bottle was marked with a permanent mark on the neck for aligning the bottle the same way for each measurement. The bottle was filled with distilled water to the bottom of the neck and aligned in a Haze Meter with the alignment mark facing forward (Haze Meter, Type UKM1d, Radiometer Copenhagen) to zero the instrument. The bottle was emptied and then filled with a degassed beer sample to be tested and the haze was recorded in ASBC Formazin units.

[4] = Flavor stability of flavored malt beverage; details: 10 ppm CA and 5 ppm CN; 10 ppm RA
Method: To a flavored malt beverage 10 ppm CA and 5 ppm CN, is added, and the beverage aged. To the same beverage, 10 ppm RA is added. […] When RA is added to the CA and or CN, an improvement is observed.

[5] = 0 days at 40° C., + Air, 20 ppm (RA + CA: 10 ppm each)
[6] = 0 days at 40° C., no air, 20 ppm (CA + RA: 10 ppm each)
[7] = 3 days at 40° C., + Air, 20 ppm (RA + CA: 10 ppm each)
[8] = 3 days at 40° C., no air, 20 ppm (CA + RA: 10 ppm each)
[9] = 7 days at 40° C., + Air, 20 ppm (RA + CA: 10 ppm each)
[10] = 7 days at 40° C., no air, 20 ppm (CA + RA: 10 ppm each)
[11] = 14 days at 40° C., + Air, 20 ppm (RA + CA: 10 ppm each)
[12] = 14 days at 40° C., no air, 20 ppm (CA + RA: 10 ppm each)
[13] = 21 days at 40° C., + Air, 20 ppm (RA + CA: 10 ppm each)
[14] = 21 days at 40° C., no air, 20 ppm (CA + RA: 10 ppm each)

| SMILES | DCIP Redox Value [1, 5] | DCIP Redox Value [1, 6] | DCIP Redox Value [1, 7] | DCIP Redox Value [1, 8] | DCIP Redox Value [1, 9] | DCIP Redox Value [1, 10] | DCIP Redox Value [1, 11] | DCIP Redox Value [1, 12] | DCIP Redox Value [1, 13] | DCIP Redox Value [1, 14] | effect on DCIP redox potential ([1]; no air) | effect on DCIP redox potential ([1]; with added air) | panelists' preference for treated sample over Aged No Addition sample ([2]; 1 week 40° C.) | Haze ([3]; Day 0, 40° C., + air) [ASBC Formazin Units] | Haze ([3]; Day 0, 40° C., no air) [ASBC Formazin Units] | Haze ([3]; Day 3, 40° C., + air) [ASBC Formazin Units] | Haze ([3]; Day 3, 40° C., no air) [ASBC Formazin Units] | Haze ([3]; Day 7, 40° C., + air) [ASBC Formazin Units] | Haze ([3]; Day 7, 40° C., no air) [ASBC Formazin Units] | Haze ([3]; Day 14, 40° C., + air) [ASBC Formazin Units] | other results |
| --- | --- | --- | --- | --- | --- | --- | --- | --- | --- | --- | --- | --- | --- | --- | --- | --- | --- | --- | --- | --- | --- |
| CC(C)c1cc2c(c(O)c1O)[C@@]1(C(=O)O)CCCC(C)(C)[C@@H]1CC2 [CA, carnosic acid] | 93.8 | 90.6 | 89.1 | 89.1 | 68.9 | 83.5 | 62.1 | 82.3 | 62.9 | 86.9 | increases the DCIP redox potential of the starting beer | beneficial effect on aged beer that contains added air | 8 of 8 panelists preferred | 40 | 40 | 45 | 30 | 50 | 35 | 80 | Haze ([3]; Day 14, 40° C., no air): 45 ASBC Formazin Units; Haze ([3]; Day 21, 40° C., + air): 120 ASBC Formazin Units; Haze ([3]; Day 21, 40° C., no air): 75 ASBC Formazin Units; Haze ([3]; Day 35, 40° C., + air): 800 ASBC Formazin Units; Haze ([3]; Day 35, 40° C., no air): 110 ASBC Formazin Units; effect on rate of haze formation [3]: dramatic positive effect on reducing the rate of haze formation |
| O=C(/C=C/c1ccc(O)c(O)c1)O[C@H](Cc1ccc(O)c(O)c1)C(=O)O [RA, rosmarinic acid] | 76.0 | 76.3 | 63.4 | 76.2 | 48.3 | 63.9 | 25.1 | 59.9 | 26.6 | 63.4 | no effect on the DCIP redox potential | not effective in preserving the DCIP redox potential | 7 of 8 panelists preferred | 37 | 37 | 32 | 40 | 40 | 35 | 100 | panelists' preference for treated sample over Aged No Addition sample ([2]; 3 days 40° C.): 6 of 8 panelists preferred; Haze ([3]; Day 14, 40° C., no air): 40 ASBC Formazin Units; Haze ([3]; Day 21, 40° C., + air): 175 ASBC Formazin Units; Haze ([3]; Day 21, 40° C., no air): 55 ASBC Formazin Units; Haze ([3]; Day 35, 40° C., + air): 800 ASBC Formazin Units; Haze ([3]; Day 35, 40° C., no air): 120 ASBC Formazin Units; effect on rate of haze formation [3]: dramatic positive effect on reducing the rate of haze formation; flavor stability of aged flavored malt beverage [4]: only slightly better than the control |

Reference: patent US20050058745A1, “Use of Labiatae herb preparations for extending the flavor shelf life of malt beverages” (priority 2003, published 2005)
